Measured values published in PMC6826779, “Bis-allylic Deuterated DHA Alleviates Oxidative Stress in Retinal Epithelial Cells” (Antioxidants, 2019).

Test: Radical oxidation of DHAs with AAPH, LC-MS/MS quantification of 4-F4t-NeuroP
Type: physicochemical
Conditions: AAPH 1 mM, phosphate buffer/methanol, 37 °C, 14 h; compared to natural DHA
Protocol: A solution of DHA in methanol (1 mg/mL, 0.5 mL) was added to 4.5 mL of phosphate-buffered saline solution (pH = 7.3) containing 1 mM of AAPH. The mixture was heated at 37 °C for 14 h, and then allowed to reach room temperature The mixture was spiked with 4 ng of internal standard (IS: C21-15-F2t-IsoP) and then purified using solid phase extraction.
For solid-phase extraction (SPE), Oasis MAX mixed polymer phase anion exchanger cartridges were used. Aliquots of 2 mL of sample were loaded on the cartridges previously conditioned with 2 mL of methanol and equilibrated with 2 mL of 0.02 M of formic acid (pH 4.5). […] Recoveries were determined to range between 83 and 100% (see Supplementary Materials). […]
Mass spectrometry analysis was performed on an AB SCIEX QTRAP 5500 (Sciex). […] Quantification was accomplished using external calibration lines constructed with the internal standard (IS: C21-15-F2t-IsoP). The data are presented as means ± SD determined from 3 independent experiments, each performed in triplicate assay.
Standards solutions of IS (C21-15-F2t-IsoP) and NeuroP standardt (4(RS)-F4t-NeuroP) used to determine the different characteristic transitions and the elution time for each compound were prepared in methanol at 1 µg/mL from 1 mg/mL stock solution in methanol. […] Finally, calibration curves were calculated by the area ratio of the NeuroP and the internal standard.

Row | Structure (SMILES) | 4-F4t-NeuroP formation after radical oxidation
1 | [2H]C([2H])(C=CCC=CCC=CCC=CCC)C=CC([2H])([2H])C=CCCC(=O)O [D4-DHA, (6,6,9,9-D4)-DHA] | decrease of 4-F4t-NeuroP formation
2 | [2H]C([2H])(/C=C\C/C=C\C/C=C\C/C=C\C/C=C\CC)/C=C\CCC(=O)O [D2-DHA, (6,6-D2)-DHA] | decrease of 4-F4t-NeuroP formation
